Measured values as given in patent US6737383B1, “Herbicidal oxadiazolidines” (priority 1999, dated 2004).

Tests used:
bedstraw = assay: Test B pre/postemergence bedstraw; assay type: in vivo, Galium aparine
Summary of the method: (§1)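 Response is a visual 0-to-10 score relative to untreated plants, where 0 means no effect and 10 means complete control, taken twelve to sixteen days after application. Treatments went onto soil at planting and onto foliage of 1- to 4-leaf plants, using a surfactant-containing non-phytotoxic solvent.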

blackgrass = assay: Test B pre/postemergence blackgrass; assay type: in vivo, Alopecurus myosuroides
Summary of the method: as §1

surinam grass = assay: Test B pre/postemergence surinam grass; assay type: in vivo, Brachiaria decumbens
Summary of the method: as §1

cocklebur = assay: Test B pre/postemergence cocklebur; assay type: in vivo, Xanthium strumarium
Summary of the method: as §1

corn = assay: Test B pre/postemergence corn; assay type: in vivo, Zea mays
Summary of the method: as §1

crabgrass = assay: Test B pre/postemergence crabgrass; assay type: in vivo, Digitaria sanguinalis
Summary of the method: as §1

giant foxtail = assay: Test B pre/postemergence giant foxtail; assay type: in vivo, Setaria faberii
Summary of the method: as §1

morningglory = assay: Test B pre/postemergence morningglory; assay type: in vivo, Ipomoea hederacea
Summary of the method: as §1

pigweed = assay: Test B pre/postemergence pigweed; assay type: in vivo, Amaranthus retroflexus
Summary of the method: as §1

rape = assay: Test B pre/postemergence rape; assay type: in vivo, Brassica napus
Summary of the method: as §1

sugar beet = assay: Test B pre/postemergence sugar beet; assay type: in vivo, Beta vulgaris
Summary of the method: as §1

wheat = assay: Test B pre/postemergence wheat; assay type: in vivo, Triticum aestivum
Summary of the method: as §1

wild oat = assay: Test B pre/postemergence wild oat; assay type: in vivo, Avena fatua
Summary of the method: as §1

purple nutsedge = assay: Test B pre/postemergence purple nutsedge; assay type: in vivo, Cyperus rotundus
Summary of the method: as §1

rice = assay: Test B flood test rice; assay type: in vivo, Oryza sativa
Summary of the method: (§2)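 Plants were grown to the 2-leaf stage before treatment with test chemical, then held in a greenhouse for twelve to sixteen days. Injury was visually rated against untreated controls on a 0–10 scale, where 0 is no effect and 10 is complete control.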

bamyardgrass = assay: Test B flood test barnyardgrass; assay type: in vivo, Echinochloa crus-galli
Summary of the method: as §2

[1] = Preemergence, Rate 62 g/ha, scale of 0 to 10 where 0 is no effect and 10 is complete control
[2] = Preemergence, Rate 250 g/ha, scale of 0 to 10 where 0 is no effect and 10 is complete control
[3] = Preemergence, Rate 500 g/ha, scale of 0 to 10 where 0 is no effect and 10 is complete control
[4] = Rate 62 g/ha, Postemergence, scale 0 to 10, 0 no effect, 10 complete control
[5] = Rate 125 g/ha, Postemergence, scale of 0 to 10 where 0 is no effect and 10 is complete control
[6] = Rate 125 g/ha, Preemergence, scale of 0 to 10 where 0 is no effect and 10 is complete control
[7] = Rate 250 g/ha, Postemergence, scale of 0 to 10 where 0 is no effect and 10 is complete control
[8] = Rate 500 g/ha, Postemergence, scale 0 to 10, 0 no effect, 10 complete control
[9] = Rate 62 g/ha, headed Pre-emergence (flood test species), scale 0 to 10 (0 no effect, 10 complete control)
[10] = Rate 125 g/ha, Pre-emergence, flood test species, scale 0 to 10 where 0 is no effect and 10 is complete control
[11] = Rate 250 g/ha, Pre-emergence, flood-test species, scale 0 to 10, 0 is no effect, 10 is complete control
[12] = Rate 500 g/ha, Pre-emergence, flood test species, scale 0 to 10 (0 no effect, 10 complete control)

Structure (SMILES): CCC=CCn1c(=O)on(C(=O)N(c2ccc(F)cc2)C(C)C)c1=O [Compound 286]
- Bedstraw plant response rating (bedstraw; [1]): 0
- Bedstraw plant response rating (bedstraw; [2]): 0
- Plant response rating, Bedstraw (bedstraw; [3]): 0
- Bedstraw plant response rating (bedstraw; [4]): 2
- Bedstraw plant response rating (bedstraw; [5]): 2
- Bedstraw plant response rating (bedstraw; [6]): 0
- Plant response rating, Bedstraw (bedstraw; [7]): 5
- Bedstraw plant response rating (bedstraw; [8]): 6
- Blackgrass plant response rating (blackgrass; [1]): 0
- Blackgrass plant response rating (blackgrass; [2]): 7
- Plant response rating, Blackgrass (blackgrass; [3]): 7
- Blackgrass plant response rating (blackgrass; [4]): 0
- Blackgrass plant response rating (blackgrass; [5]): 2
- Blackgrass plant response rating (blackgrass; [6]): 0
- Plant response rating, Blackgrass (blackgrass; [7]): 5
- Blackgrass plant response rating (blackgrass; [8]): 8
- B. signalgrass plant response rating (surinam grass; [1]): 0
- B. signalgrass plant response rating (surinam grass; [2]): 8
- Plant response rating, B. signalgrass (surinam grass; [3]): 8
- B. signalgrass plant response rating (surinam grass; [4]): 0
- B. signalgrass plant response rating (surinam grass; [5]): 0
- B. signalgrass plant response rating (surinam grass; [6]): 3
- Plant response rating, B. signalgrass (surinam grass; [7]): 0
- B. signalgrass plant response rating (surinam grass; [8]): 2
- Cocklebur plant response rating (cocklebur; [1]): 0
- Cocklebur plant response rating (cocklebur; [2]): 0
- Plant response rating, Cocklebur (cocklebur; [3]): 0
- Cocklebur plant response rating (cocklebur; [4]): 0
- Cocklebur plant response rating (cocklebur; [5]): 0
- Cocklebur plant response rating (cocklebur; [6]): 0
- Plant response rating, Cocklebur (cocklebur; [7]): 0
- Cocklebur plant response rating (cocklebur; [8]): 0
- Corn plant response rating (corn; [1]): 0
- Corn plant response rating (corn; [2]): 0
- Plant response rating, Corn (corn; [3]): 0
- Corn plant response rating (corn; [4]): 0
- Corn plant response rating (corn; [5]): 0
- Corn plant response rating (corn; [6]): 0
- Plant response rating, Corn (corn; [7]): 0
- Corn plant response rating (corn; [8]): 0
- Crabgrass plant response rating (crabgrass; [1]): 0
- Crabgrass plant response rating (crabgrass; [2]): 10
- Plant response rating, Crabgrass (crabgrass; [3]): 10
- Crabgrass plant response rating (crabgrass; [4]): 0
- Crabgrass plant response rating (crabgrass; [5]): 0
- Crabgrass plant response rating (crabgrass; [6]): 2
- Plant response rating, Crabgrass (crabgrass; [7]): 2
- Giant foxtail plant response rating (giant foxtail; [1]): 8
- Giant foxtail plant response rating (giant foxtail; [2]): 10
- Plant response rating, Giant foxtail (giant foxtail; [3]): 10
- Giant foxtail plant response rating (giant foxtail; [4]): 0
- Giant foxtail plant response rating (giant foxtail; [5]): 0
- Giant foxtail plant response rating (giant foxtail; [6]): 10
- Plant response rating, Giant foxtail (giant foxtail; [7]): 2
- Morningglory plant response rating (morningglory; [1]): 0
- Morningglory plant response rating (morningglory; [2]): 0
- Plant response rating, Morningglory (morningglory; [3]): 0
- Morningglory plant response rating (morningglory; [4]): 1
- Morningglory plant response rating (morningglory; [5]): 3
- Morningglory plant response rating (morningglory; [6]): 0
- Plant response rating, Morningglory (morningglory; [7]): 8
- Redroot pigweed plant response rating (pigweed; [1]): 0
- Redroot pigweed plant response rating (pigweed; [2]): 2
- Plant response rating, Redroot pigweed (pigweed; [3]): 10
- Redroot pigweed plant response rating (pigweed; [4]): 0
- Redroot pigweed plant response rating (pigweed; [5]): 3
- Redroot pigweed plant response rating (pigweed; [6]): 0
- Plant response rating, Redroot pigweed (pigweed; [7]): 6
- Rape plant response rating (rape; [1]): 0
- Rape plant response rating (rape; [2]): 3
- Plant response rating, Rape (rape; [3]): 7
- Rape plant response rating (rape; [4]): 0
- Rape plant response rating (rape; [5]): 2
- Rape plant response rating (rape; [6]): 0
- Plant response rating, Rape (rape; [7]): 5
- Sugarbeets plant response rating (sugar beet; [1]): 0
- Sugarbeets plant response rating (sugar beet; [2]): 0
- Plant response rating, Sugarbeets (sugar beet; [3]): 4
- Sugarbeets plant response rating (sugar beet; [4]): 0
- Sugarbeets plant response rating (sugar beet; [5]): 2
- Sugarbeets plant response rating (sugar beet; [6]): 0
- Plant response rating, Sugarbeets (sugar beet; [7]): 2
- Wheat plant response rating (wheat; [1]): 0
- Wheat plant response rating (wheat; [2]): 0
- Plant response rating, Wheat (wheat; [3]): 2
- Wheat plant response rating (wheat; [4]): 0
- Wheat plant response rating (wheat; [5]): 3
- Wheat plant response rating (wheat; [6]): 0
- Plant response rating, Wheat (wheat; [7]): 3
- Wild oats plant response rating (wild oat; [1]): 0
- Wild oats plant response rating (wild oat; [2]): 4
- Plant response rating, Wild oats (wild oat; [3]): 6
- Wild oats plant response rating (wild oat; [4]): 0
- Wild oats plant response rating (wild oat; [5]): 0
- Plant response rating, Wild oats (wild oat; [7]): 2
- Nutsedge plant response rating (purple nutsedge; [1]): 0
- Nutsedge plant response rating (purple nutsedge; [2]): 0
- Nutsedge plant response rating (purple nutsedge; [4]): 0
- Nutsedge plant response rating (purple nutsedge; [5]): 0
- Nutsedge plant response rating (purple nutsedge; [6]): 0
- Plant response rating, Nutsedge (purple nutsedge; [7]): 0
- Rice plant response rating (rice; [9]): 0
- Rice plant response rating (rice; [10]): 0
- Rice plant response rating (rice; [11]): 0
- Rice plant response rating (rice; [12]): 0
- Barnyardgrass plant response rating (bamyardgrass; [9]): 0
- Barnyardgrass plant response rating (bamyardgrass; [10]): 0
- Barnyardgrass plant response rating (bamyardgrass; [11]): 0
- Barnyardgrass plant response rating (bamyardgrass; [12]): 4
